Read-outs that look alike come from different tables or passages of the source.
Columns and labels:
KC/GRO in plasma = assay: Rat Tendinopathy Model (1), plasma biomarker KC/GRO; type: in vivo
Description: Fifty (50 μl) of Collagenase Type IA (10 mg/ml in PBS, pH 7.4, approximately 469 units/mg) (Catalog # C5138, Sigma, St. Louis, Mo.) was injected into the Achilles tendon of both ankles near the osteotendinous junction of male Sprague Dawley CD® IGS rats (CRL, Inc.), using insulin syringes with 28.5 G needle.
[…] […] All rats were periodically observed for any pain, illnesses or abnormalities. At various time points, blood was collected for plasma in lithium heparin coated tubes by saphenous vein bleeding. For histology, rats were euthanized using isoflurane, tendons were isolated (n=6 tendons/group), fixed in 10% buffered formalin (Catalog # SF93-4, Fisher, Pittsburgh Pa.) and H & E histology staining was performed at a secondary site (Pacific Pathology, San Diego, Calif.). For biochemical analysis, tendons were isolated (n=4 tendons/group), flash frozen in liquid nitrogen and then stored at −80° C. for subsequent biochemical analysis (not reported).
Following manufacturer's instructions, KC/GRO plasma levels were determined using the KC/GRO Immunoassay kit (Catalog#900-K57, Peprotech, Rocky Hill, N.J.). Briefly, 96-well plates were coated with the anti-rat KC/GRO capture antibody overnight and washed to remove excess antibody. Plasma samples were incubated in the coated plates for 2 hours at room temperature. Following washes to remove unbound proteins, biotinylated anti-rat KC/GRO detection antibody was added and incubated for 30 mins at room temperature. Following washes to remove unbound excess antibody, avidin-HRP was added and incubated for 30 mins at room temperature. Following washes to remove unbound Avidin-HRP, the ABTS substrate was added and the plates were read on the Cytation 3 plate reader (Biotek Inc., Winooski, Vt.) at an absorbance of 525 nm with correction at 450 nm. All samples were processed in triplicate.
In this study, a total of 64 sections were scored for Group 1 (sham injection group) and approximately 96 sections each for Group 2 (Collagenase-Vehicle), Group 3 (Collagenase-compound 175 with BA preservative) group and Group 4 (Collagenase-compound 175 without preservative). To determine statistical significance between groups, student's t-test was performed with p<0.05 considered as significant for histology scoring and biomarker assay.

[1] = Pharmacokinetics after single topical application in rats (plasma, tendon, skin); type: in vivo, rat; conditions: for AUC(0-t) / Cmax / Tmax: topical or ocular; for Kp: tendon and plasma
Description: The compound 175 formulation was applied once topically to each ankle of the hind leg of each animal at 60 μL volume (30 μL/cm^2×2 cm^2) over the area of the Achilles tendon.
Blood samples (˜0.5 mL) were collected via cardiac puncture, into tubes containing K2EDTA as anticoagulant, at 1, 2, 4, 7 and 24 hours post-dose from 2 animals per timepoint (n=2). Plasma was harvested and frozen at −80° C. for bioanalysis.
The Achilles tendons from both ankles were collected following euthanasia at 1, 2, 4, 7 and 24 hours post-dose from 2 animals per timepoint (n=4) from all groups. Skin tissue samples were collected from the dose-site at 7 and 24 hours post-dose from 2 animals per timepoint (n=4) in Group 2. Tissues were frozen at −80° C. for bioanalysis. Blood and tissue collection schedule is outlined in Table 8 below.
Skin tissue samples were processed using the following procedures: 1) Weigh tissue and homogenize using cryoPrep (Covaris); 2) Add 9× volume of Acetonitrile:Methanol (70:30) and vortex for one hour; 3) Aliquot 100 μL of tissue homogenate into 96 microtube polypropylene plate; 4) Add 10 μL of working standard to each standard; 5) Add 10 μL of methanol in all samples and blanks; 6) Add 10 μL of internal standard (IS) to all tubes except blanks; 7) Spin in centrifuge at 3000 rpm for 10 minutes; and 8) Transfer 100 μL of supernatant into 96-well plate containing 150 μL of water. Cap and vortex for LC/MS/MS analysis.
The chromatograms of the samples were integrated and calibrated using Analyst 1.6.2 (AB Sciex, Redwood City, Calif.). Linear regression with 1/x^2 weighting and internal standardization was used for standard calibration, with an acceptance criterion of ±30% of nominal standard concentration. The lower limit of quantitation (LLOQ) was 2.00 ng/mL (plasma), 6.00 ng/g (tendon) and 25.0 ng/g (skin). Pharmacokinetic parameters were estimated by noncompartmental analysis from individual concentration versus time profiles using Pheonix WinNonlin version 6.3 (Certara, Inc., Princeton, N.J.). The time to maximum concentration (tmax) and the maximum concentration (Cmax) were determined based on measured plasma and tissue concentrations. The area under the curve (AUC0-last) was calculated using the linear trapezoidal rule.

[2] = Tendon, Group 1, 1 mg/mL, 1% BA, single topical
[3] = Tendon, Group 2, 10 mg/mL, 1% BA, single topical
[4] = Tendon, Group 3, 10 mg/mL, no preservative (0.5% Tween 80), single topical
[5] = male, Sprague Dawley, rat, plasma, 1 mg/mL, Plasma, Group 1, 1 mg/mL, 1% BA, single topical
[6] = male, Sprague Dawley, rat, plasma, 10 mg/mL, Plasma, Group 2, 10 mg/mL, 1% BA, single topical
[7] = male, Sprague Dawley, rat, plasma, 10 mg/mL, Plasma, Group 3, 10 mg/mL, no preservative (0.5% Tween 80), single topical
[8] = male, Sprague Dawley, rat, tendon, 1 mg/mL, Tendon, Group 1, 1 mg/mL, 1% BA, single topical
[9] = male, Sprague Dawley, rat, tendon, 10 mg/mL, Tendon, Group 2, 10 mg/mL, 1% BA, single topical
[10] = male, Sprague Dawley, rat, tendon, 10 mg/mL, Tendon, Group 3, 10 mg/mL, no preservative (0.5% Tween 80), single topical

## COc1ccc(NC(=O)c2n[nH]c3ccc(-c4cncc(CN5CCCCC5)c4)cc23)cn1 [compound 175, N-(6-Methoxypyridin-3-yl)-5-(5-(piperidin-1-ylmethyl)pyridin-3-yl)-1H-indazole-3-carboxamide]
KC/GRO in plasma; 10 mg/mL with or without BA preservative
  plasma KC/GRO vs vehicle: significantly decreased the levels of KC/GRO in plasma
KC/GRO in plasma; Day 0, Group 3, 10 mg/mL with 0.5% BA
  Plasma KC/GRO Concentration: 332 ± 51.3 pg/mL
KC/GRO in plasma; Day 0, Group 4, 10 mg/mL without BA, with 0.5% Tween 80
  Plasma KC/GRO Concentration: 530 ± 31.4 pg/mL
KC/GRO in plasma; Day 1, Group 3, 10 mg/mL with 0.5% BA
  Plasma KC/GRO Concentration: 521 ± 23.9 pg/mL
KC/GRO in plasma; Day 1, Group 4, 10 mg/mL without BA, with 0.5% Tween 80
  Plasma KC/GRO Concentration: 637 ± 120 pg/mL
KC/GRO in plasma; Day 3, Group 3, 10 mg/mL with 0.5% BA
  Plasma KC/GRO Concentration: 813 ± 61.4 pg/mL
KC/GRO in plasma; Day 3, Group 4, 10 mg/mL without BA, with 0.5% Tween 80
  Plasma KC/GRO Concentration: 541 ± 58.9 pg/mL
KC/GRO in plasma; Day 5, Group 3, 10 mg/mL with 0.5% BA
  Plasma KC/GRO Concentration: 480 ± 48.7 pg/mL
KC/GRO in plasma; Day 5, Group 4, 10 mg/mL without BA, with 0.5% Tween 80
  Plasma KC/GRO Concentration: 410 ± 86.0 pg/mL
KC/GRO in plasma; Day 7, Group 3, 10 mg/mL with 0.5% BA
  Plasma KC/GRO Concentration: 421 ± 57.2 pg/mL
KC/GRO in plasma; Day 7, Group 4, 10 mg/mL without BA, with 0.5% Tween 80
  Plasma KC/GRO Concentration: 451 ± 76.6 pg/mL
KC/GRO in plasma; Day 14, Group 3, 10 mg/mL with 0.5% BA
  Plasma KC/GRO Concentration: 400 ± 10.3 pg/mL
KC/GRO in plasma; Day 14, Group 4, 10 mg/mL without BA, with 0.5% Tween 80
  Plasma KC/GRO Concentration: 424 ± 76.2 pg/mL
KC/GRO in plasma; Day 21, Group 3, 10 mg/mL with 0.5% BA
  Plasma KC/GRO Concentration: 408 ± 83.3 pg/mL
KC/GRO in plasma; Day 21, Group 4, 10 mg/mL without BA, with 0.5% Tween 80
  Plasma KC/GRO Concentration: 347 ± 111 pg/mL
KC/GRO in plasma; Days 5-21, treated group with BA
  plasma KC/GRO levels, range: 400 to 480 pg/mL
KC/GRO in plasma; Days 5-21, treated group without BA
  plasma KC/GRO levels, range: 347 to 451 pg/mL
[1]; 10 mg/mL without BA (Tween 80) vs 10 mg/mL with BA
  plasma exposure of Group 3 relative to Group 2: ~0.2 ×
[1]; 10 mg/mL without BA vs 10 mg/mL with BA
  tendon exposure of Group 3 relative to Group 2: ~4 ×
[1]; 7 and 24 hours post-dose, Group 2
  skin concentration relative to tendon concentrations: roughly 1000 ×
[1]; Group 2 vs Group 1, formulations containing BA
  increase in tendon AUC(0-last) for a 10× dose-increment: 3.4 ×
[1]; Plasma, Group 1, 1 mg/mL, 1% BA, single topical
  last: 1.00 h
[1]; Plasma, Group 2, 10 mg/mL, 1% BA, single topical
  last: 7.00 h
[1]; Plasma, Group 3, 10 mg/mL, no preservative (0.5% Tween 80), single topical
  last: 7.00 h
[1]; Skin, Group 2, 10 mg/mL, 1% BA, single topical
  last: 24.0 h
[1]; [2]
  AUC(0-last): 2164 ng·h/g
  last: 24.0 h
[1]; [3]
  AUC(0-last): 7270 ng·h/g
  last: 24.0 h
[1]; [4]
  AUC(0-last): 28077 ng·h/g
  last: 24.0 h
[1]; [5]
  AUC(0-t): 0.65 ng·h/mL
  Cmax: 1.3 ng/mL
  Tmax: 1 h
[1]; [6]
  AUC(0-t): 36.1 ng·h/mL
  Cmax: 10.6 ng/mL
  Tmax: 4 h
[1]; [7]
  AUC(0-t): 6.79 ng·h/mL
  Cmax: 1.94 ng/mL
  Tmax: 7 h
[1]; male, Sprague Dawley, rat, skin, 10 mg/mL, Skin, Group 2, 10 mg/mL, 1% BA, single topical
  Tmax: 7 h
[1]; male, Sprague Dawley, rat, skin, 10 mg/mL, Skin, Group 2, 10 mg/mL, 1% BA, above quantitation limit (AQL > 25000 ng/g), reported as estimated
  Cmax: 209000 ng/g
[1]; male, Sprague Dawley, rat, skin, topical, 7 hours post-dose, Group 2, 10 mg/mL containing BA, above quantitation limit, estimated
  concentration at 7 h: 209000 ng/g
[1]; male, Sprague Dawley, rat, skin, topical, 24 hours post-dose, Group 2, 10 mg/mL containing BA, above quantitation limit, estimated
  concentration at 24 h: 113000 ng/g
[1]; male, Sprague Dawley, rat, topical, 1 mg/mL, Tendon to plasma, Group 1, 1 mg/mL, 1% BA, read-out: Tissue/Plasma AUC Ratio
  Kp: 3330
[1]; male, Sprague Dawley, rat, topical, 10 mg/mL, Tendon to plasma, Group 2, 10 mg/mL, 1% BA, read-out: Tissue/Plasma AUC Ratio
  Kp: 202
[1]; male, Sprague Dawley, rat, topical, 10 mg/mL, Tendon to plasma, Group 3, 10 mg/mL without BA, read-out: Tissue/Plasma AUC Ratio
  Kp: 4140
[1]; male, Sprague Dawley, rat, topical, all dose groups, single topical administration, read-out: tendon to plasma ratios, range across groups
  Kp: 202 to 4140
[1]; [8]
  Cmax: 519 ng/g
  Tmax: 1 h
[1]; [9]
  Cmax: 1930 ng/g
  Tmax: 1 h
[1]; [10]
  Cmax: 7050 ng/g
  Tmax: 1 h

— patent publication US10806726B2, “Methods of using indazole-3-carb oxamides and their use as Wnt/B-catenin signaling pathway inhibitors” (Samumed, LLC, priority 2016, dated 2020)
